# In patent publication US8063048B2, “Acetylenyl-pyrazolo-pyrimidine derivatives” (Hoffmann-La Roche Inc., priority 2005, dated 2011):
row,Structure (SMILES),melting point [°C]
1,"O=S(=O)(c1ccc(C#Cc2cnn3c(C(F)(F)F)cc(-c4ccc(C(F)(F)F)cc4)nc23)cc1)N1CCOCC1 [Example 122, 3-[4-(Morpholine-4-sulfonyl)-phenylethynyl]-7-trifluoromethyl-5-(4-trifluoromethyl-phenyl)-pyrazolo[1,5-a]pyrimidine]",229 to 231
2,"FC(F)(F)c1cccc(-c2cc(C(F)(F)F)n3ncc(C#Cc4cccnc4)c3n2)c1 [Example 103, 3-Pyridin-3-ylethynyl-7-trifluoromethyl-5-(3-trifluoromethyl-phenyl)-pyrazolo[1,5-a]pyrimidine]",173
3,"O=S(=O)(NCc1ccncc1)c1ccc(C#Cc2cnn3c(C(F)(F)F)cc(-c4ccc(C(F)(F)F)cc4)nc23)s1 [Example 272, 5-[7-Trifluoromethyl-5-(4-trifluoromethyl-phenyl)-pyrazolo[1,5-a]pyrimidin-3-ylethynyl]-thiophene-2-sulfonic acid (pyridin-4-ylmethyl)-amide]",170
4,"CC(C)(O)c1cc(-c2ccc(Cl)cc2)nc2c(C#Cc3ccc(S(N)(=O)=O)s3)cnn12 [Example 154, 5-[5-(4-Chloro-phenyl)-7-(1-hydroxy-1-methyl-ethyl)-pyrazolo[1,5-a]pyrimidin-3-ylethynyl]-thiophene-2-sulfonic acid amide]",206 to 208
5,"NS(=O)(=O)c1cc(C#Cc2ncn3c(C(F)(F)F)cc(-c4ccc(C(F)(F)F)cc4)nc23)c(F)cc1F [Example 177, 2,4-Difluoro-5-[4-trifluoromethyl-2-(4-trifluoromethyl-phenyl)-imidazo[1,5-a]pyrimidin-8-ylethynyl]-benzenesulfonamide]",247
6,"NS(=O)(=O)c1ccc(C#Cc2cnc3c(C(F)(F)F)cc(-c4ccc(C(F)(F)F)cc4)cn23)cc1 [Example 181, 4-[8-Trifluoromethyl-6-(4-trifluoromethyl-phenyl)-imidazo[1,2-a]pyridin-3-ylethynyl]-benzenesulfonamide]",278 to 280
7,"CC(C)(O)c1cc(-c2ccc(Cl)cc2)nc2c(C#Cc3ccc(S(N)(=O)=O)cc3)cnn12 [Example 153, 4-[5-(4-Chloro-phenyl)-7-(1-hydroxy-1-methyl-ethyl)-pyrazolo[1,5-a]pyrimidin-3-ylethynyl]-benzenesulfonamide]",267 to 269
8,"Cc1cc(-c2ccc(C(F)(F)F)cc2)cn2c(C#Cc3cncc(S(=O)(=O)NC(C)(C)CO)c3)cnc12 [Example 228, 5-[8-Methyl-6-(4-trifluoromethyl-phenyl)-imidazo[1,2-a]pyridin-3-ylethynyl]-pyridine-3-sulfonic acid (2-hydroxy-1,1-dimethyl-ethyl)-amide]",189
9,"CC(C)(C)NS(=O)(=O)c1ccc(C#Cc2cnn3c(C(F)F)cc(-c4cccc(C(F)(F)F)c4)nc23)s1 [Example 161, 5-[7-Difluoromethyl-5-(3-trifluoromethyl-phenyl)-pyrazolo[1,5-a]pyrimidin-3-ylethynyl]-thiophene-2-sulfonic acid tert-butylamide]",201
10,"CC(C)(CO)NS(=O)(=O)c1cnc(C#Cc2cnc3c(C(F)(F)F)cc(-c4ccc(C(F)(F)F)cc4)cn23)s1 [Example 196, 2-[8-Trifluoromethyl-6-(4-trifluoromethyl-phenyl)-imidazo[1,2-a]pyridin-3-ylethynyl]-thiazole-5-sulfonic acid (2-hydroxy-1,1-dimethyl-ethyl)-amide]",202 to 203
11,"COc1ccc(C#Cc2cnn3ccc(-c4ccc(Cl)cc4)nc23)cc1S(=O)(=O)NC(C)(C)CO [Example 75, 5-[5-(4-Chloro-phenyl)-pyrazolo[1,5-a]pyrimidin-3-ylethynyl]-N-(2-hydroxy-1,1-dimethyl-ethyl)-2-methoxy-benzenesulfonamide]",264 to 266
12,"O=S(=O)(NCCc1ccncc1)c1ccc(C#Cc2cnn3c(C4CC4)cc(-c4ccc(Cl)cc4)nc23)s1 [Example 318, 5-[5-(4-Chloro-phenyl)-7-cyclopropyl-pyrazolo[1,5-a]pyrimidin-3-ylethynyl]-thiophene-2-sulfonic acid (2-pyridin-4-yl-ethyl)-amide]",172 to 174
13,"CN(C)CCNS(=O)(=O)c1ccc(C#Cc2cnn3c(C(F)F)cc(-c4cccc(C(F)(F)F)c4)nc23)s1 [Example 250, 5-[7-Difluoromethyl-5-(3-trifluoromethyl-phenyl)-pyrazolo[1,5-a]pyrimidin-3-ylethynyl]-thiophene-2-sulfonic acid (2-dimethylamino-ethyl)-amide]",170
14,"NS(=O)(=O)c1ccc(C#Cc2cnn3c(C(F)(F)F)cc(-c4ccc(Cl)c(Cl)c4)nc23)cc1 [Example 94, 4-[5-(3,4-Dichloro-phenyl)-7-trifluoromethyl-pyrazolo[1,5-a]pyrimidin-3-ylethynyl]-benzenesulfonamide]",273 to 274
15,"CN(C)CCNS(=O)(=O)c1ccc(C#Cc2cnn3c(C(F)(F)F)cc(-c4cccc(C(F)(F)F)c4)nc23)s1 [Example 251, 5-[7-Trifluoromethyl-5-(3-trifluoromethyl-phenyl)-pyrazolo[1,5-a]pyrimidin-3-ylethynyl]-thiophene-2-sulfonic acid (2-dimethylamino-ethyl)-amide]",197
16,"NS(=O)(=O)c1ccc(C#Cc2cnn3c(CO)cc(-c4ccc(Cl)cc4)nc23)cc1 [Example 155, 4-[5-(4-Chloro-phenyl)-7-hydroxymethyl-pyrazolo[1,5-a]pyrimidin-3-ylethynyl]-benzenesulfonamide]",238 to 240
17,"NS(=O)(=O)c1ccc(C#Cc2cnn3c(C4CC4)cc(-c4ccc(Cl)cc4)nc23)cc1 [Example 63, 4-[5-(4-Chloro-phenyl)-7-cyclopropyl-pyrazolo[1,5-a]pyrimidin-3-ylethynyl]-benzenesulfonamide]",225 to 228

# More lines, now with the values ahead:
row,melting point [°C],Structure (SMILES)
1,149,"NS(=O)(=O)c1cc(C#Cc2ncn3c(C(F)F)cc(-c4ccc(C(F)(F)F)cc4)nc23)c(F)cc1F [Example 274, 5-[4-Difluoromethyl-2-(4-trifluoromethyl-phenyl)-imidazo[1,5-a]pyrimidin-8-ylethynyl]-2,4-difluoro-benzenesulfonamide]"
2,255 to 267,"Cc1ccc(C#Cc2cnn3c(C(F)(F)F)cc(-c4ccc(C(F)(F)F)cc4)nc23)cc1S(N)(=O)=O [Example 35, 2-Methyl-5-[7-trifluoromethyl-5-(4-trifluoromethyl-phenyl)-pyrazolo[1,5-a]pyrimidin-3-ylethynyl]-benzenesulfonamide]"
3,216,"Nc1ccc(C#Cc2cnn3c(C(F)F)cc(-c4ccc(C(F)(F)F)cc4)nc23)cn1 [Example 188, 5-[7-Difluoromethyl-5-(4-trifluoromethyl-phenyl)-pyrazolo[1,5-a]pyrimidin-3-ylethynyl]-pyridin-2-ylamine]"
4,225 to 226,"CC(CO)NS(=O)(=O)c1cncc(C#Cc2cnn3c(C(F)(F)F)cc(-c4ccc(C(F)(F)F)cc4)nc23)c1 (stereo not shown) [Example 28, 5-[7-Trifluoromethyl-5-(4-trifluoromethyl-phenyl)-pyrazolo[1,5-a]pyrimidin-3-ylethynyl]-pyridine-3-sulfonic acid (2-hydroxy-1-methyl-ethyl)-amide]"
5,202,"FC(F)(F)c1ccc(-c2cc(C(F)(F)F)n3ncc(C#Cc4cccnc4C4CC4)c3n2)cc1 [Example 8, 3-(2-Cyclopropyl-pyridin-3-ylethynyl)-7-trifluoromethyl-5-(4-trifluoromethyl-phenyl)-pyrazolo[1,5-a]pyrimidine]"
6,152,"O=S(=O)(NCc1cccnc1)c1ccc(C#Cc2cnn3c(C(F)F)cc(-c4ccc(C(F)(F)F)cc4)nc23)s1 [Example 278, 5-[7-Difluoromethyl-5-(4-trifluoromethyl-phenyl)-pyrazolo[1,5-a]pyrimidin-3-ylethynyl]-thiophene-2-sulfonic acid (pyridin-3-ylmethyl)-amide]"
7,175 to 176,"O=S(=O)(c1cccc(C#Cc2cnn3c(C(F)F)cc(-c4ccc(C(F)(F)F)cc4)nc23)c1)N1CCOCC1 [Example 144, 7-Difluoromethyl-3-[3-(morpholine-4-sulfonyl)-phenylethynyl]-5-(4-trifluoromethyl-phenyl)-pyrazolo[1,5-a]pyrimidine]"
8,294,"Nc1ncc(C#Cc2ncn3c(C(F)(F)F)cc(-c4ccc(C(F)(F)F)cc4)nc23)cn1 [Example 285, 5-[4-Trifluoromethyl-2-(4-trifluoromethyl-phenyl)-imidazo[1,5-a]pyrimidin-8-ylethynyl]-pyrimidin-2-ylamine]"
9,267,"Nc1ccc(C#Cc2cnc3c(C(F)(F)F)cc(-c4ccc(C(F)(F)F)cc4)nn23)cn1 [Example 232, 5-[8-Trifluoromethyl-6-(4-trifluoromethyl-phenyl)-imidazo[1,2-b]pyridazin-3-ylethynyl]-pyridin-2-ylamine]"
10,225,"Nc1ccc(C#Cc2ncn3c(C(F)(F)F)cc(-c4ccc(C(F)(F)F)cc4)nc23)cn1 [Example 284, 5-[4-Trifluoromethyl-2-(4-trifluoromethyl-phenyl)-imidazo[1,5-a]pyrimidin-8-ylethynyl]-pyridin-2-ylamine]"
11,227 to 228,"O=S(=O)(c1ccc(C#Cc2cnn3c(C(F)F)cc(-c4ccc(C(F)(F)F)cc4)nc23)cc1)N1CCOCC1 [Example 137, 7-Difluoromethyl-3-[4-(morpholine-4-sulfonyl)-phenylethynyl]-5-(4-trifluoromethyl-phenyl)-pyrazolo[1,5-a]pyrimidine]"
12,243 to 245,"Nc1ccc(C#Cc2cnn3c(C(F)(F)F)cc(-c4ccc(C(F)(F)F)cc4)cc23)cn1 [Example 235, 5-[7-Trifluoromethyl-5-(4-trifluoromethyl-phenyl)-pyrazolo[1,5-a]pyridin-3-ylethynyl]-pyridin-2-ylamine]"
13,265 to 267,"Cc1ccc(C#Cc2cnn3c(C(F)F)cc(-c4ccc(C(F)(F)F)cc4)nc23)cc1S(N)(=O)=O [Example 60, 5-[7-Difluoromethyl-5-(4-trifluoromethyl-phenyl)-pyrazolo[1,5-a]pyrimidin-3-ylethynyl]-2-methyl-benzenesulfonamide]"
14,282 to 284,"Cc1cc(-c2ccc(C(F)(F)F)cc2)nc2c(C#Cc3ccc(S(N)(=O)=O)cc3)cnn12 [Example 150, 4-[7-Methyl-5-(4-trifluoromethyl-phenyl)-pyrazolo[1,5-a]pyrimidin-3-ylethynyl]-benzenesulfonamide]"
